Measured values: patent publication US4775684A, “1,3-dioxane ethers” (Imperial Chemical Industries PLC, priority 1985, dated 1988)

What was measured:
[1] = target: T1, U46619 stimulated platelet aggregation (Homo sapiens, UniProt P21731); experiment: blood platelet aggregation test (procedure (b)), U46619 stimulated aggregation of human citrated platelet-rich plasma; format: cell-based; conditions: U46619, averaged over several concentrations
T1 construct: human, citrated platelet-rich plasma; endogenous in cells; host or cells: human platelets in citrated platelet-rich plasma
T1 sequence (P21731 1-343): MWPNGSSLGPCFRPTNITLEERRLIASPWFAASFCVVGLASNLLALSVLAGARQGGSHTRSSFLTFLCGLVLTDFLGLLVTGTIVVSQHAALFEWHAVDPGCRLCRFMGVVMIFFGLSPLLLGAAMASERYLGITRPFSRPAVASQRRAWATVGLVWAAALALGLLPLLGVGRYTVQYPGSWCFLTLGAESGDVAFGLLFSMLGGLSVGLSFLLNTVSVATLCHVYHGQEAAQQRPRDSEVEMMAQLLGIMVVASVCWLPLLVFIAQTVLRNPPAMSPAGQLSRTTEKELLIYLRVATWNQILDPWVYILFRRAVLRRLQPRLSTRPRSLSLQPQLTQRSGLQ
Text: (b) a blood platelet aggregation test based on that described by Born (Nature, 1962, 194, 927-929) and involving:
(i) aggregating human, citrated platelet-rich plasma by addition of the TXA2 mimetic agent U46619 so that a dose-response curve is generated;
(ii) generating a dose-response curve for U46619 stimulated platelet aggregation in the presence of increasing amounts of test compound (generally in the range, 10^-5 M to 10^-10 M); and
(iii) calculating a KB value indicating potency of TXA2 antagonism for the test compound, averaged over several concentrations, from the calculated 50% response value for U46619 aggregation in the presence and absence of test compound; and […]

[2] = target: T2, rat aortal strip (Rattus norvegicus, UniProt P34978); experiment: rat aortal strip model (procedure (a)), agonist U46619; format: cell-based; conditions: read-out: pA2 (converted)
T2 construct: rat aortal strip model; from tissue; host or cells: rat aorta strip
T2 sequence (P34978 1-341): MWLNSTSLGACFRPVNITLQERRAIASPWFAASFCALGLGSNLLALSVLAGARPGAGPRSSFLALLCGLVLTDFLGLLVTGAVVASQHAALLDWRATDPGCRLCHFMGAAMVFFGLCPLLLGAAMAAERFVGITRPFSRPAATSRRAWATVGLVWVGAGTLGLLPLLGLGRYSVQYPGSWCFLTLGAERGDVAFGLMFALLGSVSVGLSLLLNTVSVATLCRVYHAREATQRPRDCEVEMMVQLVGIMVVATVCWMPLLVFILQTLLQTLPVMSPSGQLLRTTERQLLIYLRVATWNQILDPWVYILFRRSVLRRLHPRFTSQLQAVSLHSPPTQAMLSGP
Text: As stated earlier, the compounds of formula I are antagonists of one or more of the actions of TXA2, for example certain of its actions on blood platelets, the vasculature and/or the lung.
(a) The rabbit aortal strip model devised by Piper and Vane (Nature, 1969, 223, 29-35) or the rat aortal strip model developed by Kennedy et alia (Prostaglandins, 1982, 24, 667-689), using as agonist the TXA2 mimtic agent known as U46619 (described by R. L. Jones et alia, in "Chemistry, Biochemistry and Pharmacological Activity of Prostanoids" edited by S. M. Roberts and F. Scheinmann, at page 211, Pergamon Press, 1979);

SMILES: CC(C)(Oc1ccccc1)[C@@H]1OC[C@H](C/C=C\CCC(=O)O)[C@H](c2ccccc2O)O1 (relative stereo) [Example 6, 4(Z)-6-([2,4,5-cis]-2-[1-methyl-1-phenoxyethyl]-4-o-hydroxyphenyl-1,3-dioxan-5-yl)hexenoic acid]
- Kb [1]: 17.5 nM
- Kb [2]: 0.195 nM
